Reference: patent US20250049930A1, “PROTAC MOLECULES TARGETING FOXP3 AND USES THEREOF” (CEDARS-SINAI MEDICAL CENTER, priority 2022, published 2025)
Residues, ends and D or L forms follow the SMILES beside them. *: point of attachment. X1 = O=C1CCC(N2C(=O)c3cccc(*)c3C2=O)C(=O)N1; PEG4 = NCCOCCOCCOCCOCCC(=O)O

Target: T1, FoxP3 (Homo sapiens, UniProt Q9BZS1)
T1 construct: endogenous in cells; host or cells: human PBMC (CD4+ gated)
T1 sequence (Q9BZS1 1-431): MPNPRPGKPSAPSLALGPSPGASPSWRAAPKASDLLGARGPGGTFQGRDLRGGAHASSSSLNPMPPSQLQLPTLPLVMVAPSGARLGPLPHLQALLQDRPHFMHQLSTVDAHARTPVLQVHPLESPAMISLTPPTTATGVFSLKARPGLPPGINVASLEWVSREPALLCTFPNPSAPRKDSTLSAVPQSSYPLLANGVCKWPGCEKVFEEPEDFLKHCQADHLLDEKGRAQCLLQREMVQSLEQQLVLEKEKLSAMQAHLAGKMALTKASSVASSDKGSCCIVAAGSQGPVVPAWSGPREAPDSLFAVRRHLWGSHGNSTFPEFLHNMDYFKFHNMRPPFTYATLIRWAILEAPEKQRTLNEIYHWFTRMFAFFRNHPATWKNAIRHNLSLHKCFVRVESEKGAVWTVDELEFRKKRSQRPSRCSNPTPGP
Assay: FoxP3 expression in CD4+ human PBMC, flow cytometry
Type: cell-based
Conditions: 10 μM, 3 days, PMA 10 ng/ml and Ionomycin 2 μg/ml, difference to P60 not significant
Method: FIGS. 7A-7C depict that PF decreases FoxP3 and the immunosuppressive function of human CD4+ cells. Human peripheral blood mononuclear cells (PBMC) were treated in vitro with PF (10 μM) or various control drugs (10 μM) for 3 days (FIG. 7A). PMA 10 ng/ml and Ionomycin 2 μg/ml were added during PF treatment to induce FoxP3 (FIG. 7A). Resulting cells were gated on CD4 and assessed for FoxP3 expression by flow cytometry. To treat Tregs, CD4+ PBMC were isolated and treated with PF or various controls for 72 hours. […] CD8 proliferation was measured using a CFSE dilution assay. To assess CD8+ effector cells, CD4 negative splenocytes were CFSE labeled and CFSE dilution was measured in CD8+ cells by flow cytometry (FIG. 7B). In the same experiment, CD8+ cells were assessed for activation by gating on CD8 and assessing IFNγ or TNFα by flow cytometry (FIG. 7C). […]
Human peripheral blood mononuclear cells (PBMC) were treated with phorbol 12-myristate 13-acetate (PMA) (10 ng/ml) and Ionomycin (2 μg/ml) to increase FoxP3 expression. […] CD8 proliferation was measured using a CFSE dilution assay. Immune activation was assessed by measuring TNFα or IFNγ in CD8+ or CD4+ T cells using flow cytometry.
P60 was designed to bind both mouse and human FoxP3. Therefore, we evaluated PF using human peripheral blood mononuclear cells (PBMC). […] Resulting cells were gated on CD4 and assessed for FoxP3 expression by flow cytometry. […]

## CSCC[C@H](NC(=O)[C@H](C)NC(=O)[C@H](Cc1ccccc1)NC(=O)[C@H](Cc1ccccc1)NC(=O)[C@@H]1CCCN1C(=O)[C@H](Cc1c[nH]c2ccccc12)NC(=O)[C@H](CCSC)NC(=O)[C@H](CCCCN)NC(=O)[C@H](CCCNC(=N)N)NC(=O)[C@H](Cc1ccccc1)NC(=O)[C@H](CO)NC(=O)[C@H](CCC(N)=O)NC(=O)[C@H](Cc1ccccc1)NC(=O)[C@H](CC(=O)O)NC(=O)[C@H](CCCNC(=N)N)NC(=O)CCOCCOCCOCCOCCNc1cccc2c1C(=O)N(C1CCC(=O)NC1=O)C2=O)C(=O)O (stereo partly shown) [PF, Pomalidomide-PEG4-RDFQSFRKMWPFFAM] ({X1-PEG4}-RDFQSFRKMWPFFAM-OH)
  percent of CD4+ cells expressing FoxP3: decreased the percent of CD4+ cells expressing FoxP3 when compared to control
